These results are taken from PMC8839658, “Design and Activity of Novel Oxadiazole Based Compounds That Target Poly(ADP-ribose) Polymerase” (Molecules, 2022).

Structures are written as SMILES. Read-outs that look alike come from different tables or passages of the source.

As a reminder, the inhibition is the relative decrease from the control value, in per cent. A word on the melting point: it is the temperature, or range, at which the solid turns liquid. The IC50 is the concentration that gives 50% inhibition.

Data set [1] concerns the target T1, recombinant human PARP enzyme (PARP1) (Homo sapiens, UniProt P09874).
T1 construct: purchased R&D Systems Ltd., Abingdon, UK 4677-096-K
Put plainly: PARP activity, PARP/Apoptosis Universal Colorimetric Assay Kit. It is filed as biochemical. The following applies: n = 3. The procedure:
PARP activity was measured using the PARP/Apoptosis Universal Colorimetric Assay Kit (4677-096-K, R&D Systems Ltd., Abingdon, UK). The enzyme inhibition assay uses the histone proteins immobilized 96-well plate, which measures the incorporation of ADP-ribose (biotin-tagged), followed by detection using streptavidin-conjugated horse-radish peroxidase, and finally the color development after the addition of substrate. Oxadiazoles were incubated with the recombinant human PARP enzyme prior to detection.

Data set [2] deals with MCF-7 cells. The data set is described as follows: MCF-7 cell viability assay (Alamar Blue). In kind it is cell-based, human. The procedure:
(§1) Initially, the newly synthesized oxadiazoles were examined in cell viability studies in human breast cancer (MCF-7) cells using Alamar Blue assays.
(§2) MCF-7 and MDA-MB-231 (2000) cells were cultured in MEM or Leibovitz’s L-15 medium enriched with 2% FBS and maintained in a humidified atmosphere of 5% CO2 at 37 °C [44]. DMSO dissolved compounds were kept as a stock solution, and diluted with a cell culture medium to the desired concentration. Cancer cells (4 × 10^3) were grown overnight in 96-well plates, cultured, and treated with oxadiazoles or Olaparib at 0, 0.01, 0.1, 10, 100, and 1000 µM concentrations for 72 h. The inhibitory effect of the compounds was assessed using Alamar Blue reagent.
(§3) MCF-7 and MDA-MB-231 were treated with 5u, 5s and Olaparib (0, 0.01, 0.1, 1, 10, 100 µM) for 72 h, respectively. The viability of MCF-7 (A) and MDA-MB-231 cells (B) were analyzed using a microplate reader to measure the fluorescence of Alamar Blue reagent (excitation wavelength is between 530–560 nm and emission wavelength is 590 nm). The results are means of triplicate determinations.
On the technique in general: The colour change of resazurin is a common sign of viable cells or microbes.

Data set [3] deals with MDA-MB-231 cells. Put plainly: MDA-MB-231 cell viability assay (Alamar Blue). In kind it is cell-based, human. As to conditions: Homo sapiens, MDA-MB-231, 72 h. How it is done:
as §1, §2, §3

The test system of data set [4] is MCF-7 cells. The data set is described as follows: Western blot, PARP1 cleavage in MCF-7 cells. The following applies: MCF-7, 1 or 10 µM, 60 h. It is filed as cell-based, human. The procedure: (§4) Western blot analysis was performed to determine the levels of PARP1 cleavage and p-H2AX in MCF-7 and MDA-MB-231 cells using previously reported methods. Cells at 50–60% confluence were treated with compounds and incubated for 60 h in 2% FBS. MCF-7 and MDA-MB-231 cells were also treated with Olaparib, 5u, or 5s and the levels of cleaved PARP1 and p-H2A-X were determined using the respective antibodies.
(§5) Figure 4 The effect of compounds 5u, 5s, and Olaparib on PARP1 cleavage (upper panel of A,B) phosphorylation of H2A-X (Ser139) (lower panel of A,B), and CASPASE-3 activity (C,D) in MCF-7 and MDA-MB-231 cells. Cancer cells were treated with or without compounds 5u, 5s,and Olaparib (1 or 10 µM). The protein levels after treatment were observed by western blot analysis. GAPDH was used as input control. The data are expressed as mean ± SEM. ** p ≤ 0.01; *** p ≤ 0.001.

For data set [5], the system named is MDA-MB-231 cells. The data set is described as follows: Western blot, PARP1 cleavage in MDA-MB-231 cells. It is filed as cell-based, human. The following applies: MDA-MB-231, 1 or 10 µM, 60 h. How it is done:
as §4, §5

For data set [6], the system named is MCF-7 cells. Put plainly: Western blot, p-H2AX (Ser139) in MCF-7 cells. It is filed as cell-based, human. As to conditions: MCF-7, 1 or 10 µM, 60 h. How it is done: as §4, §5
(Immunoblotting shows a protein as a band on a membrane.)

The subject of data set [7] is MDA-MB-231 cells. Put plainly: Western blot, p-H2AX (Ser139) in MDA-MB-231 cells. It is filed as cell-based, human. As to conditions: MDA-MB-231, 1 or 10 µM, 60 h. How it is done:
as §4, §5

The test system of data set [8] is MCF-7 cells. The data set is described as follows: Foci formation assay, MCF-7 cells. It is filed as cell-based, human. As to conditions: MCF-7, crystal violet. How it is done:
(§6) MCF-7 and MDA-MB-231 cells were plated in six-well plates in 2 mL media with or without compounds and cultured. When foci had formed, MCF-7 and MDA-MB-231 cells were washed with PBS and fixed with ice-cold methanol for 10 min at 4°C. Methanol was removed and crystal violet solution was used to stain foci at room temperature for 10 min. The resultant solution was removed; immobilized MCF-7 and MDA-MB-231 cells were rinsed with distilled water and dried at room temperature.
(§7) Figure 5 Compounds 5u, 5s, and Olaparib inhibited the foci formation of MCF-7 (left panel of A) and MDA-MB-231 (left panel of B) cells. Visualization of foci formed was achieved by use of Crystal Violet. Inhibition of foci formation was also quantified (right panels of both A,B) The data are expressed as mean ± SEM. * p ≤ 0.05; ** p ≤ 0.01; *** p ≤ 0.001.

Data set [9] relates to MDA-MB-231 cells. The data set is described as follows: Foci formation assay, MDA-MB-231 cells. In kind it is cell-based, human. As to conditions: MDA-MB-231, crystal violet. The procedure: as §6, §7
Data set [10] relates to MCF-7 cells. The data set is described as follows: 3D Matrigel growth, MCF-7 cells. It is filed as cell-based, human. The following applies: MCF-7, 4% Matrigel, 1 or 10 µM, Alamar Blue. The procedure:
(§8) Cells were grown in a medium containing 4% Matrigel. Cells were treated with vehicles or compounds 5s, 5u, or Olaprib (1 or 10 µM), after colonies had formed. Compounds were added into the culture medium every 3 days for a total of 2 cycles. Alamar Blue assay was used for quantification of live cells. The data are expressed as mean ± SEM. * p ≤ 0.05; ** p ≤ 0.01; *** p ≤ 0.001.

Data set [11] concerns MDA-MB-231 cells. The data set is described as follows: 3D Matrigel growth, MDA-MB-231 cells. In kind it is cell-based, human. The following applies: MDA-MB-231, 4% Matrigel, 1 or 10 µM, Alamar Blue. How it is done: as §8
Where [12] appears, read: Homo sapiens, MCF7, 72 h, MCF-7, 72 h, Alamar Blue, read-out: IC50, cell viability of MCF-7 cells.

T1 sequence (P09874 whole entry): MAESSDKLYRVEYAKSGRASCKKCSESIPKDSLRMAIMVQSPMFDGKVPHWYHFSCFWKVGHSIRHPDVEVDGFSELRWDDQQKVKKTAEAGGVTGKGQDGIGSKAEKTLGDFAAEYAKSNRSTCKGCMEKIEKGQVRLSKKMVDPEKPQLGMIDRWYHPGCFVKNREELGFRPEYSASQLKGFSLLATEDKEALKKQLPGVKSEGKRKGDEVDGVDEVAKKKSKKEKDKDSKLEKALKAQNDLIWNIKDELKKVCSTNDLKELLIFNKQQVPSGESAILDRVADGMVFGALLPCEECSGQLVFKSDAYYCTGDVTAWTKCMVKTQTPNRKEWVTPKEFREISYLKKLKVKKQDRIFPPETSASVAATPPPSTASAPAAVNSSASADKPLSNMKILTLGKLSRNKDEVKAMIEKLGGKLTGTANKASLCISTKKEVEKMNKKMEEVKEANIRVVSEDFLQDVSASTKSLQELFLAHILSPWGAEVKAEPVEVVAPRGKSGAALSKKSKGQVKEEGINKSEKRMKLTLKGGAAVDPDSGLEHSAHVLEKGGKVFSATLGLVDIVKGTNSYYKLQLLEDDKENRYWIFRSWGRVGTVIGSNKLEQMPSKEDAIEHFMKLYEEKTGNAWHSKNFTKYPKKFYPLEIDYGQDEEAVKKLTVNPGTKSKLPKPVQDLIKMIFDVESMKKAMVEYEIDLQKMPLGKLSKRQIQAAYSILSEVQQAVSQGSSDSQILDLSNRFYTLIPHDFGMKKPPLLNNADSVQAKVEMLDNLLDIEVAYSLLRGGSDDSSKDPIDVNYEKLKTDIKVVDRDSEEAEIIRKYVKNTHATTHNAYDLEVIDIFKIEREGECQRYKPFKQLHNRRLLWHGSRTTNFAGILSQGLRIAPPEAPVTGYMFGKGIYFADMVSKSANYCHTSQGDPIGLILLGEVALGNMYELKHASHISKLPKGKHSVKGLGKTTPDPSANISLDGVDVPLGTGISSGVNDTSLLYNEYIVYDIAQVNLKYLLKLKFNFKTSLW

As to `NC(=O)c1cccc(N)c1` [3-Aminobenzamide, reference compound], in [1] (0.01 µM), the inhibition at 0.01 µM is 0.5%. In data set [1] (0.1 µM), the inhibition at 0.1 µM is 6.17%. Moreover, the inhibition at 1 µM in data set [1] (1 µM) is 23.3%. Also, in [1] (10 µM), the inhibition at 10 µM was found to be 56.6%. In [1] (100 µM), the inhibition at 100 µM turned out to be 85.7%.

Take `c1cc(-c2nnc(-c3ccc4c(c3)OCCO4)o2)cc(-c2cccc3ccccc23)c1` [5e, 2-(2,3-Dihydrobenzo[b][1,4]dioxin-6-yl)-5-(3-(naphthalen-1-yl)phenyl)-1,3,4-oxadiazole]: the melting point lay in the range of 156 to 158 °C.

Take `c1cc(-c2ccncc2)cc(-c2nnc(-c3ccc4c(c3)OCCO4)o2)c1` [5f, 2-(2,3-Dihydrobenzo[b][1,4]dioxin-6-yl)-5-(3-(pyridin-4-yl)phenyl)-1,3,4-oxadiazole]: the melting point was 194 to 196 °C.

Consider `c1cc(-c2cncnc2)cc(-c2nnc(-c3ccc4c(c3)OCCO4)o2)c1` [5i, 2-(2,3-Dihydrobenzo[b][1,4]dioxin-6-yl)-5-(3-(pyrimidin-5-yl)phenyl)-1,3,4-oxadiazole], for which the melting point was in the range of 190 to 192 °C.

`Cc1cncc(-c2cccc(-c3nnc(-c4ccc5c(c4)OCCO5)o3)c2)c1C` [5k, 2-(2,3-Dihydrobenzo[b][1,4]dioxin-6-yl)-5-(3-(4,5-dimethylpyridin-3-yl)phenyl)-1,3,4-oxadiazole] had a melting point of 198 to 200 °C.

`c1cncc(-c2cccc(-c3nnc(-c4ccc5c(c4)OCCO5)o3)c2)c1` [5n, 2-(2,3-Dihydrobenzo[b][1,4]dioxin-6-yl)-5-(3-(pyridin-3-yl)phenyl)-1,3,4-oxadiazole]: the melting point was 138 to 140 °C.

Regarding `Cc1cc(-c2cccc(-c3nnc(-c4ccc5c(c4)OCCO5)o3)c2)cnc1F` [5q, 2-(2,3-Dihydrobenzo[b][1,4]dioxin-6-yl)-5-(3-(6-fluoro-5-methylpyridin-3-yl)phenyl)-1,3,4-oxadiazole], the melting point fell in the range of 144 to 146 °C.

On to `Cc1c(-c2cccc(-c3nnc(-c4ccc5c(c4)OCCO5)o3)c2)ccnc1F` [5t, 2-(2,3-Dihydrobenzo[b][1,4]dioxin-6-yl)-5-(3-(2-fluoro-3-methylpyridin-4-yl)phenyl)-1,3,4-oxadiazole], for which the melting point was in the range of 128 to 130 °C.

In the case of `O=C(c1cc(Cc2n[nH]c(=O)c3ccccc23)ccc1F)N1CCN(C(=O)C2CC2)CC1` [Olaparib, reference compound], the concentration for half-maximal inhibition (IC50) with MCF-7 cells [2] (Homo sapiens, MCF7, 72 h, read-out: Log IC50, MCF-7, MCF-7, 72 h, Alamar Blue (converted), Figure 2A) was 3.31 µM; in the data set on MCF-7 cells [2] (read-out: IC50, cell viability of MCF-7 cells, MCF-7, 72 h, Alamar Blue) it was 3.2 µM; with MDA-MB-231 cells [3] (read-out: IC50, cell viability of MDA-MB-231 cells), 70.2 µM; in the data set with MDA-MB-231 cells [3] (read-out: IC50, cell viability of MDA-MB-231 cells, MDA-MB-231, 72 h, Alamar Blue) it was 70.2 µM; in the data set with MDA-MB-231 cells [3] (read-out: Log IC50, MDA-MB-231 (converted)), 70.8 µM. In addition, the PARP1 cleavage result with MCF-7 cells [4] and in the data set with MDA-MB-231 cells [5] was “Equivalent levels of cleaved PARP1” throughout. Moreover, the “level of p-H2AX” value in the data set with MCF-7 cells [6] and in the data set with MDA-MB-231 cells [7] was “equivalent increases in the level of p-H2AX” throughout. Further, the foci formation entry with MCF-7 cells [8] and in the data set with MDA-MB-231 cells [9] was “decreased in a dose-dependent manner” in each case. The “3D growth in Matrigel” value in the data set with MCF-7 cells [10] and with MDA-MB-231 cells [11] was “inhibited the growth” throughout.

On to `COc1ccc(Cc2nnc(-c3cccc(-c4cncnc4)c3)o2)cc1` [compound 5g, 2-(4-Methoxybenzyl)-5-(3-(pyrimidin-5-yl)phenyl)-1,3,4-oxadiazole], for which the melting point lay within 90 to 92 °C.

In turn, `COc1ccc(Cc2nnc(-c3cccc(-c4cncnc4)c3)o2)cc1OC` [compound 5h, 2-(3,4-Dimethoxybenzyl)-5-(3-(pyrimidin-5-yl)phenyl)-1,3,4-oxadiazole] registered a melting point of 98 to 100 °C. The concentration for half-maximal inhibition (IC50) with MCF-7 cells [2] (setting [12]) stood at 21.8 µM.

For the compound `COc1ccc(Cc2nnc(-c3cccc(-c4cncc(C)c4C)c3)o2)cc1OC` [compound 5j, 2-(3,4-Dimethoxybenzyl)-5-(3-(4,5-dimethylpyridin-3-yl)phenyl)-1,3,4-oxadiazole], the melting point fell in the range of 90 to 92 °C.

As to `COc1ccc(Cc2nnc(-c3cccc(-c4cccnc4)c3)o2)cc1OC` [compound 5m, 2-(3,4-Dimethoxybenzyl)-5-(3-(pyridin-3-yl)phenyl)-1,3,4-oxadiazole], the melting point lay in the range of 78 to 80 °C. Besides, the IC50 with MCF-7 cells [2] (setting [12]) stood at 27.1 µM.

`COc1ccc(Cc2nnc(-c3cccc(-c4cnc(F)c(C)c4)c3)o2)cc1` [compound 5o, 2-(3-(6-Fluoro-5-methylpyridin-3-yl)phenyl)-5-(4-methoxybenzyl)-1,3,4-oxadiazole] displayed a melting point of 86 to 88 °C.

In the case of `COc1ccc(Cc2nnc(-c3cccc(-c4cnc(F)c(C)c4)c3)o2)cc1OC` [compound 5p, 2-(3,4-Dimethoxybenzyl)-5-(3-(6-fluoro-5-methylpyridin-3-yl)phenyl)-1,3,4-oxadiazole], the melting point fell in the range of 91 to 93 °C. Besides, the IC50 in the data set with MCF-7 cells [2] (setting [12]) came to 18.4 µM.

Consider `COc1ccc(Cc2nnc(-c3cccc(-c4ccnc(F)c4C)c3)o2)cc1` [compound 5r, 2-(3-(2-Fluoro-3-methylpyridin-4-yl)phenyl)-5-(4-methoxybenzyl)-1,3,4-oxadiazole], for which the melting point lay in the range of 94 to 96 °C. Also, the IC50 in the data set on MCF-7 cells [2] (setting [12]) was found to be 25 µM.
